Our source for the Ki values is US8653263B2 (Janssen Pharmaceutica, priority 2009, dated 2014).

One test deals with human orexin-2 receptor (Homo sapiens (Human), UniProt O43614). Kind of test: Human orexin 2 receptor radioligand binding ([3H]-EMPA competition). The note with it: HEK293 cells stably expressing human orexin-2 receptor; [3H]-EMPA 5 nM final; apparent Ki=IC50/(1+C/Kd), Kd=2 nM; read-out: OR 2 Ki.
Chain of human orexin-2 receptor (O43614 whole entry): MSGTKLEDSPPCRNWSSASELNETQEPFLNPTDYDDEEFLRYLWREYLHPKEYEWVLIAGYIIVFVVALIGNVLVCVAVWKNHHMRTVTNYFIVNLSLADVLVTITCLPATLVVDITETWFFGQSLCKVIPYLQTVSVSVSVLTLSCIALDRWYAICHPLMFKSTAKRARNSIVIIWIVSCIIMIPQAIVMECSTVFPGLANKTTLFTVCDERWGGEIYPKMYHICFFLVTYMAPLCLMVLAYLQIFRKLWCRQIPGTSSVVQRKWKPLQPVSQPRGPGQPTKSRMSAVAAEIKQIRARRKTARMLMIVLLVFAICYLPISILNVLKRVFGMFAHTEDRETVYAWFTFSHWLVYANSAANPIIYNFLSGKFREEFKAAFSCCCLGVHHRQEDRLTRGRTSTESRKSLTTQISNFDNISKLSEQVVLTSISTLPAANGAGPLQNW
Take `Cc1cc(N2CC3CN(C(=O)c4ccccc4-n4nccn4)CC3C2)nc(C)n1` (stereo not shown) [Example 122, 2-(2,6-Dimethylpyrimidin-4-yl)-5-{[2-(2H-1,2,3-triazol-2-yl)phenyl]carbonyl}octahydropyrrolo[3,4-c]pyrrole]: the Ki stood at 865 nM.

`CN(C)c1nc(N2CC3CN(C(=O)c4c(F)cccc4-c4ncccn4)CC3C2)cc(C(F)(F)F)n1` (stereo not shown) [Example 116, 4-{5-[(2-Fluoro-6-pyrimidin-2-ylphenyl)carbonyl]hexahydropyrrolo[3,4-c]pyrrol-2(1H)-yl}-N,N-dimethyl-6-(trifluoromethyl)pyrimidin-2-amine]: the Ki worked out at 22 nM.

Consider `O=C(c1ccccc1-c1ccccc1)N1CC2CN(c3nccc(-c4ccccc4)n3)CC2C1` (stereo not shown) [Example 164, 2-(Biphenyl-2-ylcarbonyl)-5-(4-phenylpyrimidin-2-yl)octahydropyrrolo[3,4-c]pyrrole], for which the Ki worked out at 289 nM.

Consider `O=C(c1ccccc1-c1ccccc1)N1CC2CN(c3nccc(-c4cn[nH]c4)n3)CC2C1` (stereo not shown) [Example 61, 2-(Biphenyl-2-ylcarbonyl)-5-[4-(1H-pyrazol-4-yl)pyrimidin-2-yl]octahydro-pyrrolo[3,4-c]pyrrole], for which the Ki was 224 nM.

Consider `COc1ccc(C(=O)N2CC3CN(c4cccc(C)n4)CC3C2)c(OC)c1` (stereo not shown) [Example 185, (2,4-Dimethoxy-phenyl)-[5-(6-methyl-pyridin-2-yl)-hexahydro-pyrrolo[3,4-c]pyrrol-2-yl]-methanone], for which the Ki amounted to 9000 nM.

As for `Cc1cc(C)nc(N2CC3CN(C(=O)c4ncoc4-c4ccccc4)CC3C2)n1` (stereo not shown) [Example 79, 2-(4,6-Dimethylpyrimidin-2-yl)-5-[(5-phenyl-1,3-oxazol-4-yl)carbonyl]octahydro-pyrrolo[3,4-c]pyrrole], the Ki is 480 nM.

Consider `Cc1cc(C)nc(N2CC3CN(C(=O)c4cccc(F)c4F)CC3C2)n1` (stereo not shown) [Example 271, (2,3-Difluorophenyl)(5-(4,6-dimethylpyrimidin-2-yl)hexahydropyrrolo[3,4-c]pyrrol-2(1H)-yl)methanone], for which the Ki amounted to 5000 nM.

As to `CCCOc1cccnc1C(=O)N1CC2CN(c3cnc4ccccc4n3)CC2C1` (stereo not shown) [Example 347, (3-Propoxypyridin-2-yl)(5-(quinoxalin-2-yl)hexahydropyrrolo[3,4-c]pyrrol-2(1H)-yl)methanone], the Ki is 3100 nM.

With `Cc1ccc(-c2ncccn2)c(C(=O)N2CC3CN(c4nc(C)cc(C)n4)CC3C2)c1` (stereo not shown) [Example 102, 2-(4,6-Dimethylpyrimidin-2-yl)-5-[(5-methyl-2-pyrimidin-2-ylphenyl)carbonyl]octahydropyrrolo[3,4-c]pyrrole], the Ki is 17 nM.

Regarding `Cc1cc(C)nc(N2CC3CN(C(=O)c4c(C)cccc4Cl)CC3C2)n1` (stereo not shown) [Example 230, 2-[(2-Chloro-6-methylphenyl)carbonyl]-5-(4,6-dimethylpyrimidin-2-yl)octahydropyrrolo[3,4-c]pyrrole], the Ki stood at 254 nM.

As for `COc1ccc(C(=O)N2CC3CN(c4ncc(C)c(C)n4)CC3C2)c(-n2nccn2)c1` (stereo not shown) [Example 380, 2-(4,5-Dimethylpyrimidin-2-yl)-5-{[4-methoxy-2-(2H-1,2,3-triazol-2-yl)phenyl]carbonyl}octahydropyrrolo[3,4-c]pyrrole], the Ki stood at 15 nM.

`CCc1c(C)nc(N2CC3CN(C(=O)c4ccccc4-c4ncn(C)n4)CC3C2)nc1C` (stereo not shown) [Example 322, 2-(5-Ethyl-4,6-dimethylpyrimidin-2-yl)-5-{[2-(1-methyl-1H-1,2,4-triazol-3-yl)phenyl]carbonyl}octahydropyrrolo[3,4-c]pyrrole]: the Ki was found to be 10 nM.

Turning to `COc1ccnc(N2CC3CN(C(=O)c4ccccc4OC)CC3C2)n1` (stereo not shown) [Example 199, (2-Methoxy-phenyl)-[5-(4-methoxy-pyrimidin-2-yl)-hexahydro-pyrrolo[3,4-c]pyrrol-2-yl]-methanone], the Ki stood at 3780 nM.

Take `Cc1cnc(C)c(N2CC3CN(C(=O)c4ccccc4-n4nccn4)CC3C2)n1` (stereo not shown) [Example 155, 2-(3,6-Dimethylpyrazin-2-yl)-5-{[2-(2H-1,2,3-triazol-2-yl)phenyl]carbonyl}octahydropyrrolo[3,4-c]pyrrole]: the Ki was found to be 33 nM.

Turning to `Cc1cc(C)nc(N2CC3CN(C(=O)c4cc(F)ccc4C(F)(F)F)CC3C2)n1` (stereo not shown) [Example 221, 2-(4,6-Dimethylpyrimidin-2-yl)-5-{[5-fluoro-2-(trifluoromethyl)phenyl]carbonyl}octahydropyrrolo[3,4-c]pyrrole], the Ki stood at 2210 nM.

Regarding `Cc1cnc(C)c(N2CC3CN(C(=O)c4c(F)cccc4-n4nccn4)CC3C2)n1` (stereo not shown) [Example 101, 2-(3,6-Dimethylpyrazin-2-yl)-5-{[2-fluoro-6-(2H-1,2,3-triazol-2-yl)phenyl]carbonyl}octahydropyrrolo[3,4-c]pyrrole], the Ki stood at 48 nM.

Regarding `Cc1cc(C)nc(N2CC3CN(C(=O)c4occc4-c4ccccc4)CC3C2)n1` (stereo not shown) [Example 13, 2-(4,6-Dimethylpyrimidin-2-yl)-5-[(3-phenylfuran-2-yl)carbonyl]octahydropyrrolo[3,4-c]pyrrole], the Ki came to 89 nM.

As to `COc1ccc(C(=O)N2CC3CN(c4nc5ccc(Cl)cc5s4)CC3C2)c(OC)c1` (stereo not shown) [Example 163, 6-Chloro-2-{5-[(2,4-dimethoxyphenyl)carbonyl]hexahydropyrrolo[3,4-c]pyrrol-2(1H)-yl}-1,3-benzothiazole], the Ki was determined as 380 nM.

`CCc1ccccc1C(=O)N1CC2CN(c3nc(C)cc(C)n3)CC2C1` (stereo not shown) [Example 76, 2-(4,6-Dimethylpyrimidin-2-yl)-5-[(2-ethylphenyl)carbonyl]octahydropyrrolo[3,4-c]pyrrole]: the Ki was 237 nM.

Take `Cc1ccnc(N2CC3CN(C(=O)c4ccccc4-c4nnc[nH]4)CC3C2)n1` (stereo not shown) [Example 87, 2-(4-Methylpyrimidin-2-yl)-5-{[2-(4H-1,2,4-triazol-3-yl)phenyl]carbonyl}octahydro-pyrrolo[3,4-c]pyrrole]: the Ki was found to be 509 nM.

`COc1cc(OC)nc(N2CC3CN(C(=O)c4ncccc4-c4ccccc4)CC3C2)n1` (stereo not shown) [Example 207, [5-(4,6-Dimethoxy-pyrimidin-2-yl)-hexahydro-pyrrolo[3,4-c]pyrrol-2-yl]-(3-phenyl-pyridin-2-yl)-methanone]: the Ki amounted to 9000 nM.

As to `Cc1cc(C)nc(N2CC3CN(C(=O)c4cccc(F)c4C)CC3C2)n1` (stereo not shown) [Example 220, 2-(4,6-Dimethylpyrimidin-2-yl)-5-[(3-fluoro-2-methylphenyl)carbonyl]octahydropyrrolo[3,4-c]pyrrole], the Ki came out at 500 nM.

For `COc1cccc(C(=O)N2CC3CN(c4nc(C)cc(C)n4)CC3C2)c1-n1ccnn1` (stereo not shown) [Example 286, 2-(4,6-Dimethylpyrimidin-2-yl)-5-{[3-methoxy-2-(1H-1,2,3-triazol-1-yl)phenyl]carbonyl}octahydropyrrolo[3,4-c]pyrrole], the Ki is 10000 nM.

`COc1cccc(OC)c1C(=O)N1CC2CN(c3nccc(-c4ccccc4)n3)CC2C1` (stereo not shown) [Example 166, 2-[(2,6-Dimethoxyphenyl)carbonyl]-5-(4-phenylpyrimidin-2-yl)octahydropyrrolo[3,4-c]pyrrole]: the Ki stood at 465 nM.

For `Cc1cc(C)nc(N2CC3CN(C(=O)c4c(C)cccc4C)CC3C2)n1` (stereo not shown) [Example 225, 2-[(2,6-Dimethylphenyl)carbonyl]-5-(4,6-dimethylpyrimidin-2-yl)octahydropyrrolo[3,4-c]pyrrole], the Ki was 423 nM.

As to `O=C(c1ccccc1-c1nnc[nH]1)N1CC2CN(c3nc4ccccc4nc3C(F)(F)F)CC2C1` (stereo not shown) [Example 94, 2-[5-{[2-(4H-1,2,4-Triazol-3-yl)phenyl]carbonyl}hexahydropyrrolo[3,4-c]pyrrol-2(1H)-yl]-3-(trifluoromethyl)quinoxaline], the Ki amounted to 551 nM.

Consider `Cc1nc(N2CC3CN(C(=O)c4ccccc4-c4ncn(C)n4)CC3C2)nc(C)c1C` (stereo not shown) [Example 311, 2-{[2-(1-Methyl-1H-1,2,4-triazol-3-yl)phenyl]carbonyl}-5-(4,5,6-trimethylpyrimidin-2-yl)octahydropyrrolo[3,4-c]pyrrole], for which the Ki was 7 nM.

With `CCc1ccccc1C(=O)N1CC2CN(c3cnc4ccccc4n3)CC2C1` (stereo not shown) [Example 35, 2-{5-[(2-Ethylphenyl)carbonyl]hexahydropyrrolo[3,4-c]pyrrol-2(1H)-yl}quinoxaline], the Ki came to 722 nM.

With `Cc1cc(C)nc(N2CC3CN(C(=O)c4ccc(F)cc4-c4ncccc4F)CC3C2)n1` (stereo not shown) [Example 346, (5-(4,6-Dimethylpyrimidin-2-yl)hexahydropyrrolo[3,4-c]pyrrol-2(1H)-yl)(4-fluoro-2-(3-fluoropyridin-2-yl)phenyl)methanone], the Ki was 25 nM.

For the molecule `Cc1cc(C)nc(N2CC3CN(C(=O)c4cccc5ccccc45)CC3C2)n1` (stereo not shown) [Example 93, 2-(4,6-Dimethylpyrimidin-2-yl)-5-(naphthalen-1-ylcarbonyl)octahydropyrrolo[3,4-c]pyrrole], the Ki is 64 nM.

Regarding `COc1cc(OC)nc(N2CC3CN(C(=O)c4cc(C)ccc4-n4nccn4)CC3C2)n1` (stereo not shown) [Example 129, 2-(4,6-Dimethoxypyrimidin-2-yl)-5-{[5-methyl-2-(2H-1,2,3-triazol-2-yl)phenyl]carbonyl}octahydropyrrolo[3,4-c]pyrrole], the Ki amounted to 111 nM.

Take `Cc1cc(C)nc(N2CC3CN(C(=O)c4c(C)ccc5ccccc45)CC3C2)n1` (stereo not shown) [Example 47, 2-(4,6-Dimethylpyrimidin-2-yl)-5-[(2-methylnaphthalen-1-yl)carbonyl]octahydro-pyrrolo[3,4-c]pyrrole]: the Ki is 38 nM.

For the molecule `COc1ccc(N2CC3CN(C(=O)c4ccccc4-c4cccs4)CC3C2)nc1` (stereo not shown) [Example 125, 2-(5-Methoxypyridin-2-yl)-5-[(2-thiophen-2-ylphenyl)carbonyl]octahydropyrrolo[3,4-c]pyrrole], the Ki was 901 nM.

The test is the same for the next values; noted with them: read-out: OR 2 Ki.
As for `Cc1nc(N2CC3CN(C(=O)c4ccccc4-c4ncn(C)n4)CC3C2)ncc1Cl` (stereo not shown) [Example 321, 2-(5-Chloro-4-methylpyrimidin-2-yl)-5-{[2-(1-methyl-1H-1,2,4-triazol-3-yl)phenyl]carbonyl}octahydropyrrolo[3,4-c]pyrrole], the Ki is 29 nM.
